Laboratory results: patent US9290688B2, “Alkaline microbial enhanced oil recovery” (GEO FOSSIL FUELS, LLC, priority 2011, dated 2016)

Tested on: Rhodococcus rhodochrous ATCC #53968
Assay: End of digestion: oil and aqueous volumes, acid number by alcoholic alkaline extraction and back titration
Type: cell-based
Details: one ml of oil, alcoholic alkaline extraction, back titration; acrylic acid value per gram of oil emulsion
Procedure: An oil degrading microorganism was used to evaluate the use of chemical inhibitors to slow the utilization of hydrocarbons in petroleum. In a non-limiting example, three different chemical compounds that have been reported to inhibit beta-oxidation were tested in oil and culture medium on a petroleum sample with a strain of Rhodococcus rhodochrous ATCC #53968 in m9 minimal medium. To test the ability of each chemical inhibitor to slow the consumption of fatty acids a culture of bacteria was grown on a crude oil sample for a period of three days with crude petroleum oil as the only carbon source. Four separate flasks were set up, each with an oil to aqueous media ratio of 1 to 5 (10 ml of crude oil to 50 ml of culture medium). Each of the three chemical inhibitors was added to a separate flask and a fourth flask was allowed to digest without the addition of a chemical inhibitor as a control. The flasks were shaken at a room temperature of about 25° C. under aerobic conditions. The progress of the microbial digestion was monitored by the optical density at 600 nm and by visual inspection of the brown oil color in the aqueous phase. Three days after the addition of inhibitors, or a total of six days of incubation with oil, a small sample of oil (0.31 g) was removed. A second sample of the same size was remover after another 6 days. The organic acids were extracted from each oil sample with 1% NaOH in 70% ethanol. […]
At the end of the experiment the oil and water were separated and the volume determined. […] This would have under reported the amount of methyl esters determined by GC analysis. The amount of aqueous phase was determined to be 22.5 ml for the acrylic acid sample and 46 ml, 48 ml and 47.5 ml for the others. […] The calculated acid number for the uninhibited digestion was 5 mg of KOH per gram. The other two inhibited digestions were analyzed to be 4.5 mg for the 2-bromooctanoic acid and 6.5 for the 2-bromohexadecanoic acid inhibited digestion. The undigested oil was determined to have an acid number of 6.5 mg of KOH by analysis of a one gram sample and a 10 gram sample. […]

SMILES	final analysis acid number
C=CC(=O)O [AA, acrylic acid]	10 mg KOH per gram
CCCCCCC(Br)C(=O)O (centres unmarked) [Br C8, 2-bromooctanoic acid]	4.5 mg KOH per gram
